These results are taken from patent US20130035390A1, “TREATMENT OF MULTIPLE SCLEROSIS” (Ramot at Tel-Aviv University Ltd., priority 2010, published 2013).

One test deals with EAE mice. In words: Clinical signs of MOG-induced EAE, late treatment from day 9. In kind it is in vivo, C57bl/6 mice. The conditions noted are these: for percent of the maximal response: score difference relative to control score 2.4. How it is done:
Eight-week-old female C57bl/6 mice were purchased from Harlan. The mice were housed under standard conditions in top filtered cages. Mice were fed a regular diet and given acidified water without antibiotics.
Disease was induced by immunization with the peptide encompassing amino acids 35-55 of rat MOG synthesis (Anaspec, Fremont, Calif.). Mice were injected subcutaneously (s.c.) at the flank, with a 200 μl emulsion containing 300 μg of MOG in complete Freund's adjuvant (CFA) enriched with 500 μg Mycobacterium tuberculosis H37Ra (Difco Laboratories, Detroit, Mich.). Pertussis toxin (List biological laboratories, California, USA), […], was injected intra-peritoneally (i.p.) immediately after the MOG injection and then 48 h later. Mice were examined daily. EAE was scored as follows: 0, no abnormality; 1, mild limp tail weakness (floppy tail); 2, tail paralysis; 3, tail paralysis and hind leg paresis; 4, hind leg paralysis or mild forelimb weakness; 5, quadriplegia or moribund state; 6, death.
Briefly, FTS (as powder) was diluted in chloroform (35.8 mg/ml of FTS=0.1 M) and kept in aliquots. The content (280 μl) of one aliquot was evaporated under nitrogen and then dissolved in 40 μl absolute ethanol and 15 μl NaOH; 2.5 ml of PBS was subsequently added. Each mouse received 0.1 ml of this solution daily (0.4 mg/mouse which on a per unit weight basis equates to 20 mg/kg) intraperitoneally (i.p.), starting from day 9 of disease induction, just before the clinical onset of paralysis.
EAE was induced in C57bl/6 mice with MOG and drug treatment started on day 9 of disease induction. The animals were divided into four (4) groups.

Test [1] concerns infiltration and demyelination in the spinal cords of EAE mice. In words: Histology of lumbar spinal cord (H&E, LFB). In kind it is in vivo, C57bl/6 mice. To be noted: day 16 post EAE-induction; FTS 20 mg/kg/day i.p., GA 15 mg/kg/day s.c. The text has this: The lumbar part of the mice's spinal cord (n=8 mice for each group) was fixed in 4% paraformaldehyde (Electric Microscopy Science, PA, USA) and embedded in paraffin and cut in 4-μm-thick axial sections. Sections were stained with hematoxylin and eosin (H&E) and luxol fast blue (LFB) and then mounted in histomount medium (Invitrogen Corporation, CA, USA). Images were examined under a light microscope and captured with a NikonDS-5Mcamera (NikonInstech, Tokyo, Japan). Quantification of the inflammation and demyelination was conducted as previously described (Mi, et al., 2007). Briefly, to quantify inflammation H&E-stained nuclei were imaged, counted and percentage of stained cells per field were calculated. Similarly the percentage of regions with demyelination per field was estimated by counting the LFB-stained images. Imaging was aided by the use of Image-Pro Plus 5.1 software (MediaCybernetics, Silver, Spring, Md.).

The next test deals with Foxp3. Briefly: Western blotting of splenocyte lysates: Foxp3. In kind it is in vivo, mice. The conditions noted are these: day 17 post EAE-induction; FTS 20 mg/kg/day i.p., GA 15 mg/kg/day s.c.
Another test has as its system Ras. In words: Western blotting of splenocyte lysates: Ras. It is filed as in vivo, mice. To be noted: FTS 20 mg/kg/day i.p., GA 15 mg/kg/day s.c.
The next test has as its system phospho-Erk. In words: Western blotting of splenocyte lysates: phospho-Erk. It is filed as in vivo, mice. The conditions noted are these: FTS 20 mg/kg/day i.p., GA 15 mg/kg/day s.c.
For test [2], the system named is lymphocytes from the spleens of EAE mice. In words: Ex vivo BrdU proliferation response of EAE splenocytes to antigens and mitogens. It is filed as cell-based. To be noted: in vivo FTS 20 mg/kg/day i.p., GA 15 mg/kg/day s.c. How it is done:
Pooled single cell suspension of spleens were obtained on […] post-EAE induction and assayed in vitro for their response to antigens and mitogens ([…], lipopolysacharide—LPS, and concanavalin A—ConA) by a proliferation assay. The assay was carried out by plating in each microculture well 2×10^4 cells in 0.1 ml of proliferation medium containing optimal concentration of antigens as follows: 25 μg/ml MOG, 50 μg/ml MOG, 20 μg/ml LPS or 1 μg/ml of ConA. The experiments were performed in triplicate in 96-well, flat-bottom, microtiter plates (Costar, Cambridge, USA). Cultures were incubated for 72 h in humidified atmosphere of 95% air and 5% CO2 at 37° C. Cell proliferation was determined by Colorimetric Bromodeoxyuridine (BrdU) Cell Proliferation kit (Calbiochem, Darmstadt, Germany) following manufacturer's instructions. In brief, 20 μl of BrdU labeling solution diluted 1:2000 in culture medium were added to each well for the last 18 h of culture. After removing the medium, cells were fixed, and anti-BrdU peroxidase working solution was added to each well and incubated for one (1) hour at room temperature. Following several washes, substrate solution was added, color was developed, and absorbance was measured with a microplate reader at 450 nm. The stimulation index (S.I.) was calculated as follows: the mean absorbance of cells culture in the presence of antigen divided by the mean absorbance of cells in the absence of antigen.
Lymphocytes were obtained from the spleens of mice on day 16 post immunization with MOG and subjected to ex vivo BrdU incorporation proliferation assays. […] The cells, obtained from the four groups described above, were stimulated with various mitogens ex vivo for 48 h.

The test system of test [3] is EAE lesions and blood-brain barrier disruption in the spinal cord. In words: MR imaging of spinal cord (L1-S3) of EAE mice, T2-map and Gd-DTPA T1-weighted. It is filed as in vivo, C57bl/6 mice. The conditions noted are these: day 14 post EAE-induction; FTS 20 mg/kg/day i.p., GA 15 mg/kg/day s.c.; FIG. 2C.
Experimental: The treatment effect was evaluated by MRI experiments which were conducted on day 14 after EAE-induction. […] During the MRI scanning, mice were anesthetized with isofluorane (3% for induction, 1-2% for maintenance) mixed with compressed air (1 l/min) delivered through a nasal mask. Once anesthetized, the animals were placed in a body-holder to assure reproducible positioning inside the magnet. Respiration rate was monitored and maintained throughout the experimental period at 60-80 breaths/min. MRI experiments were performed on a 7T Bruker scanner (70/30 USR Bruker BioSpec, Germany) equipped with a gradient coil system capable of producing pulse gradients of up to 400 mT/m in each of the three directions. […]
T2-map MRI was used to deliberate the EAE lesions (demyelination) in the mice's spinal cords. Lesion volume was calculated from the T2-map MR images using the MATLAB® image processing toolbox. […] From that value was then subtracted the value of a normal appearing parallel tissue in the same slice which was measured in the same way as described above. […]
The gadolinium enhancement obtained from T1-weighted MRI reflects the infusate distribution in the mice's blood-brain barrier within the spinal cord. Thus, the volume (in mm^3) of infusate distribution was calculated from the T1-weighted MRI. […] The volume in the regions of interest was counted and accumulated for each mouse.
Setting [4] is: 0-6 scale, FTS 20 mg/kg/day i.p., GA 100 mg/kg/day s.c., daily from day 9, FIG. 1A.
Setting [5] is: Example II: 0-6 scale, FTS 60 mg/kg/day p.o., GA 15 mg/kg/day s.c., FIG. 7A.
[6] abbreviates: Example II: FTS 60 mg/kg/day p.o., GA 15 mg/kg/day s.c., daily from day 9.
Where [7] appears, read: FTS 20 mg/kg/day i.p., GA 15 mg/kg/day s.c.
Setting [8] is: FTS 20 mg/kg/day i.p., GA 15 mg/kg/day s.c., daily from day 9, four experiments.
[9] abbreviates: FTS 20 mg/kg/day i.p., GA 100 mg/kg/day s.c., daily from day 9, three experiments.

Text for Foxp3: (§1) On day 16 post EAE-induction, the brains and splenocytes of the mice (n=4 per each group) were homogenized and their lysates were subjected to sodium dodecyl sulfate-olyacrylamide gel electrophoresis followed by western blotting, as described (Goldberg and Kloog, 2006), with one of the following antibodies: pan-RAS (Ab-3; Calbiochem, San Diego, Calif.), anti-CD3 Ab (AbD serotec, Oxford, UK), anti-ERK (Santa Cruz Biotechnology, CA. USA), anti phospho-ERK (Sigma, USA), anti-tubulin Ab and anti-Foxp3 Ab (eBioScience, San Diego, Calif.). Protein bands were visualized by enhanced chemiluminescence (ECL) kit (Amersham Pharmacia Biotech, Arlington Heights, Ill.) and quantified by densitometry with Image EZQuant-Gel software (Copyright©2005, EZQuant Ltd). Lysates were used to determine Ras-GTP by the glutathione S-transferase (GST)-Ras-binding domain pulldown assay, and this was followed by western blotting with anti pan-Ras Ab.
Text for Ras: as §1
Text for phospho-Erk: as §1

In the case of “L-glutamic acid polymer with L-alanine, L-lysine and L-tyrosine, acetate (salt) [GA]”, the “maximal average clinical score” value in the test on EAE mice (setting [4]) stood at 1.4±0.43; in the test with EAE mice (setting [5]) it was 1.3±0.213. For the same compound, the “animals that developed clinical signs of EAE” value with EAE mice (setting [6]) amounted to 70%; in the test with EAE mice (setting [8]) it was 77.5%; in the test on EAE mice (setting [9]) it was 70.3%. Further, the “clinical score as control score (2.4) minus treated score” value in the test on EAE mice (setting [7]) worked out at 0.02±0.05. The “percent of the maximal response” value in the test with EAE mice (setting [7]) was found to be 2%. Also, in test [1], the “decrease in regions of demyelination (LFB) vs. control” value is listed as 48.97%±6.78%. In test [1], the “reduction of regions with inflammatory infiltrates (H&E nuclei counts) vs. control” value is on record as 33.12%±6.98%. In addition, the “increase of Foxp3 level in splenocytes vs. control” value with Foxp3 is given as “No significant elevation”. Moreover, the “decrease in Ras level in splenocytes vs. control” value in the test with Ras is on record as “does not reduce significantly”. Also, the “decrease in phospho-Erk level in splenocytes vs. control” value with phospho-Erk is listed as “does not reduce significantly”. Also, the “decrease in lymphocyte proliferation vs. control” value in test [2] (stimulated with 25 μg/ml MOG) is recorded as 43.19%±6.35%; in test [2] (stimulated with 50 μg/ml MOG) it was 41.22%±6.12%.

On to `CC(C)=CCC/C(C)=C/CC/C(C)=C/CSc1ccccc1C(=O)O` [FTS, S-trans,trans-farnesylthiosalicylic acid], for which the “maximal average clinical score” value in the test on EAE mice (0-6 scale, FTS 20 mg/kg/day i.p., GA 15 mg/kg/day s.c., daily from day 9, FIG. 1B) worked out at 2.15±0.45; in the test with EAE mice (setting [4]), 1.07±0.6; in the test with EAE mice (setting [5]), 1±0.33; with EAE mice (Example III: 0-6 scale, FTS 40 mg/kg/day s.c. (dissolved in GA in the combination), GA 15 mg/kg/day s.c., FIG. 7B), 1.72±0.45. Further, the “animals that developed clinical signs of EAE” value with EAE mice (setting [6]) amounted to 60%; in the test on EAE mice (Example III: FTS 40 mg/kg/day s.c. (dissolved in GA in the combination), GA 15 mg/kg/day s.c., daily from day 9) it was 90%; in the test with EAE mice (setting [8]) it was 82.5%; in the test with EAE mice (setting [9]), 60.7%. Further, the “clinical score as control score (2.4) minus treated score” value with EAE mice (setting [7]) stood at 0.25±0.11. Moreover, the “percent of the maximal response” value in the test with EAE mice (setting [7]) amounted to 25%. Moreover, in test [3], the “decrease in total volume of T2-map lesions per mouse vs. control” value is 30.1%±7%. Besides, the “decrease in regions of demyelination (LFB) vs. control” value in test [1] came to 59.18±10.6%. The “reduction of regions with inflammatory infiltrates (H&E nuclei counts) vs. control” value in test [1] is 28.44%±11.2%. Besides, in the test on Foxp3, the “increase of Foxp3 level in splenocytes vs. control” value is recorded as “No significant elevation”. In the test on phospho-Erk, the “decrease in phospho-Erk level in splenocytes vs. GA alone” value was 51.38%±5.6%. Further, in the test with phospho-Erk, the “decrease in phospho-Erk level in splenocytes vs. control” value is 50.18%±9.1%. Besides, the “decrease in lymphocyte proliferation vs. control” value is on record as 17.85%±5.34% in test [2] (stimulated with 25 μg/ml MOG) and 29.9%±9.18% in test [2] (stimulated with 50 μg/ml MOG).
